Measurements published in patent US20230024283A1, “HERBICIDAL COMPOUNDS” (SYNGENTA CROP PROTECTION AG, priority 2020, published 2023).

Assays:
Experiment in all cases: Post-emergence herbicidal glasshouse test
Assay type in all cases: in vivo
Settings in all cases: post-emergence spray, 1000 g/ha, evaluated after 13 days, five-point scale
[1] = test system: Abutilon theophrasti (ABUTH)
Protocol: (§1) Seeds of a variety of test species are sown in standard soil in pots (Ipomoea hederacea (IPOHE), Abutilon theophrasti (ABUTH), Amaranthus retoflexus (AMARE), Echinochloa crus-galli (ECHCG), Setaria faberi (SETFA)). After 8 days cultivation under controlled conditions in a glasshouse (at 24/16° C., day/night; 14 hours light; 65% humidity), the plants are sprayed with an aqueous spray solution derived from the formulation of the technical active ingredient in acetone / water (50:50) solution containing 0.5% Tween 20 (polyoxyethelyene sorbitan monolaurate, CAS RN 9005-64-5). Compounds are applied at 1000 g/ha unless otherwise stated. The test plants are then grown in a glasshouse under controlled conditions in a glasshouse (at 24/16° C., day/night; 14 hours light; 65% humidity) and watered twice daily. After 13 days the test is evaluated for the percentage damage caused to the plant. The biological activities are shown in the following table on a five-point scale (5=81-100%; 4=61-80%; 3=41-60%; 2=21-40%; 1=0-20%).

[2] = test system: Amaranthus retoflexus (AMARE)
Protocol: as §1

[3] = test system: Echinochloa crus-galli (ECHCG)
Protocol: as §1

[4] = test system: Ipomoea hederacea (IPOHE)
Protocol: as §1

Setaria faberi (SETFA) = test system: Setaria faberi (SETFA)
Protocol: as §1

Row | Compound | percentage damage caused to the plant, ABUTH [1] | percentage damage caused to the plant, AMARE [2] | percentage damage caused to the plant, ECHCG [3] | percentage damage caused to the plant, IPOHE [4] | percentage damage caused to the plant, SETFA (Setaria faberi (SETFA))
1 | N#Cc1cc(C#N)c(O)c(-c2cccc(F)c2)c1 [Compound 1.194] | 3 (3=41-60%) | 2 (2=21-40%) | 1 (1=0-20%) | 3 (3=41-60%) | 2 (2=21-40%)
2 | N#Cc1cc(-n2cc(Cl)c(C(F)F)n2)c(O)c(C(F)(F)F)c1 [Compound 1.250] | 2 (2=21-40%) | 5 (5=81-100%) | 2 (2=21-40%) | 5 (5=81-100%) | 2 (2=21-40%)
3 | N#Cc1cc(-n2cc(Cl)c(C3CC3)n2)c(O)c(C(F)(F)F)c1 [Compound 1.259] | 3 (3=41-60%) | 5 (5=81-100%) | 2 (2=21-40%) | 5 (5=81-100%) | 2 (2=21-40%)
4 | CC(=O)Oc1c(-c2cccc(F)c2)cc(C#N)cc1C(F)(F)F [Compound 2.002] | 5 (5=81-100%) | 5 (5=81-100%) | 4 (4=61-80%) | 5 (5=81-100%) | 1 (1=0-20%)
5 | CC(C)C(=O)Oc1c(Cl)cc(C#N)cc1-c1cccc(F)c1 [Compound 2.006] | 4 (4=61-80%) | 3 (3=41-60%) | 1 (1=0-20%) | 1 (1=0-20%) | 1 (1=0-20%)
